Where “and” joins values, the source holds several entries; their conditions need not be identical. Identical values can stand only once. Inconclusive results and toxic doses are left out. Rule as the data show it: active = T/C of 150% or more; inactive = T/C below 125%. Peptide text beside a SMILES is read from it.
Tested on: L1210 leukemia ip in BDF1 mice, survival T/C
Experiment: NCI In Vivo Anticancer Drug Screen. Data for tumor model L1210 Leukemia (intraperitoneal) in B6D2F1 (BDF1) mice
Conditions: endpoint: mean survival time, higher = longer survival
In short: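 Antitumor effect is assessed in tumor-bearing animals. Survival in the compound arm is compared with a vehicle-dosed control arm and expressed as their quotient.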

[1] = dose: 25.0 mg/kg/injection, schedule: Q04DX003 (ip), vehicle: saline with Tween-80
[2] = dose: 100.0 mg/kg/injection, schedule: Q04DX003 (ip), vehicle: saline with Tween-80
[3] = dose: 200.0 mg/kg/injection, schedule: Q04DX003 (ip), vehicle: saline with Tween-80
[4] = dose: 400.0 mg/kg/injection, schedule: Q04DX003 (ip), vehicle: saline with Tween-80
[5] = dose: 100.0 mg/kg/injection, schedule: Q01DX009 (ip), vehicle: Klucel (hydroxypropylcellulose) (HPC)
[6] = dose: 200.0 mg/kg/injection, schedule: Q01DX009 (ip), vehicle: Klucel (hydroxypropylcellulose) (HPC)

Measured: T/C

CNC(C)Cc1ccccc1 (centres undefined)
inactive: dose: 1.87 mg/kg/injection, schedule: Q04DX003 (ip), vehicle: saline 103 % of control and 116 % of control | dose: 3.75 mg/kg/injection, schedule: Q01DX009 (ip), vehicle: saline 95 % of control | dose: 3.75 mg/kg/injection, schedule: Q04DX003 (ip), vehicle: saline 106 % of control and 116 % of control | dose: 7.5 mg/kg/injection, schedule: Q01DX009 (ip), vehicle: saline 103 % of control and 98 % of control | dose: 7.5 mg/kg/injection, schedule: Q04DX003 (ip), vehicle: saline 108 % of control and 97 % of control | dose: 15.0 mg/kg/injection, schedule: Q01DX009 (ip), vehicle: saline 100 % of control and 96 % of control | dose: 15.0 mg/kg/injection, schedule: Q04DX003 (ip), vehicle: saline 95 % of control and 111 % of control | dose: 30.0 mg/kg/injection, schedule: Q01DX009 (ip), vehicle: saline 109 % of control and 112 % of control | dose: 30.0 mg/kg/injection, schedule: Q04DX003 (ip), vehicle: saline 92 % of control and 111 % of control | dose: 60.0 mg/kg/injection, schedule: Q01DX009 (ip), vehicle: saline 107 % of control and 108 % of control | dose: 60.0 mg/kg/injection, schedule: Q04DX003 (ip), vehicle: saline 95 % of control

C[N+](C)(Cc1ccccc1)CC(O)COc1ccccc1 (centres undefined)
inactive: dose: 12.5 mg/kg/injection, schedule: Q01DX001 (ip), vehicle: saline with Tween-80 108 % of control | dose: 12.5 mg/kg/injection, schedule: Q01DX009 (ip), vehicle: saline with Tween-80 100 % of control | dose: 12.5 mg/kg/injection, schedule: Q04DX003 (ip), vehicle: saline with Tween-80 92 % of control | dose: 25.0 mg/kg/injection, schedule: Q01DX001 (ip), vehicle: saline with Tween-80 100 % of control | dose: 25.0 mg/kg/injection, schedule: Q01DX009 (ip), vehicle: saline with Tween-80 94 % of control | [1] 94 % of control | dose: 50.0 mg/kg/injection, schedule: Q01DX001 (ip), vehicle: saline with Tween-80 100 % of control | dose: 50.0 mg/kg/injection, schedule: Q01DX009 (ip), vehicle: saline with Tween-80 102 % of control | dose: 50.0 mg/kg/injection, schedule: Q04DX003 (ip), vehicle: saline with Tween-80 103 % of control

O=C(CCN1CC=C(c2ccccc2)CC1)c1ccc(N2CC=C(c3ccccc3)CC2)cc1
inactive: dose: 75.0 mg/kg/injection, schedule: Q04DX002 (ip), vehicle: saline with Tween-80 100 % of control | dose: 150.0 mg/kg/injection, schedule: Q04DX002 (ip), vehicle: saline with Tween-80 100 % of control | dose: 300.0 mg/kg/injection, schedule: Q04DX002 (ip), vehicle: saline with Tween-80 107 % of control

CCC1CN2CCc3cc(OC)c(OC)cc3C2CC1CC1c2cc(OC)c(OC)cc2CCN1C(=O)C(N)Cc1ccccc1 (centres undefined)
inactive: dose: 100.0 mg/kg/injection, schedule: Q01DX001 (ip), vehicle: saline 107 % of control | dose: 200.0 mg/kg/injection, schedule: Q01DX001 (ip), vehicle: saline 97 % of control | dose: 400.0 mg/kg/injection, schedule: Q01DX001 (ip), vehicle: saline 110 % of control

Cc1ccc(N=Cc2cc(I)cc(I)c2O)cc1.Cc1ccc(N=Cc2cc(I)cc(I)c2O)cc1.[Co]
inactive: [2] 92 % of control | [3] 102 % of control and 91 % of control | [4] 96 % of control and 89 % of control

OCCCCCCCCCCO
inactive: dose: 100.0 mg/kg/injection, schedule: Q01DX009 (ip), vehicle: carboxymethylcellulose (CMC) 104 % of control | dose: 200.0 mg/kg/injection, schedule: Q01DX009 (ip), vehicle: carboxymethylcellulose (CMC) 106 % of control | dose: 400.0 mg/kg/injection, schedule: Q01DX009 (ip), vehicle: carboxymethylcellulose (CMC) 98 % of control

CSc1ccc(NC(=O)Oc2ccc(NC(C)=O)cc2)cc1
inactive: [5] 98 % of control | [6] 106 % of control | dose: 400.0 mg/kg/injection, schedule: Q01DX009 (ip), vehicle: Klucel (hydroxypropylcellulose) (HPC) 98 % of control

Nc1ccc(N)c(C(=O)O)c1
inactive: dose: 75.0 mg/kg/injection, schedule: Q01DX001 (ip), vehicle: other 98 % of control | dose: 150.0 mg/kg/injection, schedule: Q01DX001 (ip), vehicle: other 93 % of control

C=CCOCC(O)C[As](=O)(O)c1ccc(OC)cc1 (centres undefined)
inactive: [1] 87 % of control

C(CCCCCC1CCCC2CCCCC12)CCCCC1CCCC2CCCCC12 (centres undefined)
inactive: dose: 100.0 mg/kg/injection, schedule: Q01DX001 (ip), vehicle: saline with Tween-80 98 % of control | dose: 200.0 mg/kg/injection, schedule: Q01DX001 (ip), vehicle: saline with Tween-80 98 % of control | dose: 400.0 mg/kg/injection, schedule: Q01DX001 (ip), vehicle: saline with Tween-80 98 % of control

CCOC(=O)C1C=CCCC1 (centres undefined)
inactive: [2] 91 % of control | [3] 102 % of control | [4] 94 % of control

O=S(=O)(F)c1ccc(Cl)cc1CBr
inactive: dose: 100.0 mg/kg/injection, schedule: Q04DX002 (ip), vehicle: saline with Tween-80 107 % of control | dose: 200.0 mg/kg/injection, schedule: Q04DX002 (ip), vehicle: saline with Tween-80 101 % of control | dose: 400.0 mg/kg/injection, schedule: Q04DX002 (ip), vehicle: saline with Tween-80 92 % of control

CC(C)C(NC(=O)C(CCC(=O)O)NC(=O)C(N)Cc1ccc(O)cc1)C(=O)NCC(=O)NC(Cc1ccc(O)cc1)C(=O)NC(CCC(=O)O)C(=O)NC(C(=O)NCC(=O)NCC(=O)O)C(C)C (centres undefined) (H-YEVGYEVGG-OH; configuration not given here)
inactive: dose: 50.0 mg/kg/injection, schedule: Q01DX001 (ip), vehicle: carboxymethylcellulose (CMC) 91 % of control | dose: 100.0 mg/kg/injection, schedule: Q01DX001 (ip), vehicle: carboxymethylcellulose (CMC) 96 % of control | dose: 200.0 mg/kg/injection, schedule: Q01DX001 (ip), vehicle: carboxymethylcellulose (CMC) 91 % of control

CC(=O)OI(OC(C)=O)c1ccc(-c2ccccc2)cc1
inactive: [5] 91 % of control | [6] 102 % of control

N#Cc1nc2c(nc1N)CCCCCCCCCC2
inactive: dose: 100.0 mg/kg/injection, schedule: Q01DX001 (ip), vehicle: Klucel (hydroxypropylcellulose) (HPC) 96 % of control | dose: 400.0 mg/kg/injection, schedule: Q01DX001 (ip), vehicle: Klucel (hydroxypropylcellulose) (HPC) 92 % of control

CCOC(=O)CCC(NC(=O)c1ccc(N(C)Cc2cnc3nc(NC(C)=O)cc(NC(C)=O)c3n2)cc1)C(=O)OCC (centres undefined)
inactive: dose: 100.0 mg/kg/injection, schedule: Q01DX001 (ip), vehicle: other 102 % of control | dose: 200.0 mg/kg/injection, schedule: Q01DX001 (ip), vehicle: other 93 % of control | dose: 400.0 mg/kg/injection, schedule: Q01DX001 (ip), vehicle: other 95 % of control

COc1cc(C(=O)O)c2c(c1C)OC(=O)c1c(C)cc(O)c(C=O)c1O2
inactive: dose: 8.0 mg/kg/injection, schedule: Q01DX Z (ip), vehicle: saline 91 % of control | dose: 16.0 mg/kg/injection, schedule: Q01DX Z (ip), vehicle: saline 102 % of control | dose: 32.0 mg/kg/injection, schedule: Q01DX Z (ip), vehicle: saline 100 % of control | dose: 40.0 mg/kg/injection, schedule: Q04DX003 (ip), vehicle: Klucel (hydroxypropylcellulose) (HPC) 97 % of control | dose: 64.0 mg/kg/injection, schedule: Q01DX Z (ip), vehicle: saline 111 % of control | dose: 80.0 mg/kg/injection, schedule: Q04DX003 (ip), vehicle: Klucel (hydroxypropylcellulose) (HPC) 107 % of control | dose: 160.0 mg/kg/injection, schedule: Q04DX003 (ip), vehicle: Klucel (hydroxypropylcellulose) (HPC) 107 % of control

FC(F)(F)C(=Cc1nc2ccccc2s1)C(F)(F)F
inactive: dose: 12.5 mg/kg/injection, schedule: Q01DX009 (ip), vehicle: Klucel (hydroxypropylcellulose) (HPC) 91 % of control | dose: 12.5 mg/kg/injection, schedule: Q04DX003 (ip), vehicle: Klucel (hydroxypropylcellulose) (HPC) 93 % of control | dose: 25.0 mg/kg/injection, schedule: Q01DX009 (ip), vehicle: Klucel (hydroxypropylcellulose) (HPC) 98 % of control | dose: 25.0 mg/kg/injection, schedule: Q04DX003 (ip), vehicle: Klucel (hydroxypropylcellulose) (HPC) 97 % of control | dose: 50.0 mg/kg/injection, schedule: Q04DX003 (ip), vehicle: Klucel (hydroxypropylcellulose) (HPC) 95 % of control
